Values joined by “and” are separate entries in the source; they are usually repeats but may differ in a detail not shown here. Identical values can stand only once.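 1) Cells in 96-well plates. 2) Compound, 48 h, 5 concentrations. 3) Linear interpolation between surrounding doses. 4) Unreached endpoint = highest concentration. TGI is the concentration that stops growth completely.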
Tests used:
Assay in all cases: growth of human tumour cells (NCI), 48 h
[1] = test system: NCI-H460 lung
[2] = test system: NCI/ADR-RES ovarian
[3] = test system: PC-3 prostate
[4] = test system: SK-MEL-5 melanoma
[5] = test system: SK-OV-3 ovarian
[6] = test system: SNB-19 CNS
[7] = test system: UO-31 renal
[8] = test system: NCI-H226 lung
[9] = test system: RXF 393 renal
[10] = test system: OVCAR-4 ovarian
[11] = test system: HCC-2998 colon

O=P1(c2ccccc2)C2=CCC=CC2C(c2ccccc2)N1Cc1ccccc1 (stereo not drawn)
TGI [1]: 28.1 µM | TGI [2]: 32.2 µM | TGI [3]: 27.6 µM | TGI [4]: 29.8 µM | TGI [5]: 31 µM | TGI [6]: 41.2 µM | TGI [7]: 25.8 µM

CN1B(c2ccccc2)N(C)C(=O)N(C)C1=O
TGI [8]: > 100 µM | TGI [1]: > 100 µM | TGI [2]: > 100 µM | TGI [3]: > 100 µM | TGI [9]: > 100 µM | TGI [4]: > 100 µM | TGI [5]: > 100 µM | TGI [6]: > 100 µM | TGI [7]: > 100 µM

Cc1cc(C)c(N=Nc2c(O)c(S(=O)(=O)O)cc3cc(S(=O)(=O)O)ccc23)cc1C
TGI [8]: > 100 µM | TGI [2]: > 100 µM | TGI [10]: > 100 µM | TGI [3]: > 100 µM | TGI [9]: > 100 µM | TGI [4]: > 100 µM | TGI [5]: > 100 µM | TGI [6]: > 100 µM | TGI [7]: > 100 µM

O=S(=O)(/N=C(\NO)Nc1ccc(Cl)cc1)c1ccc(-c2ccccn2)s1
TGI [8]: > 100 µM | TGI [1]: > 100 µM | TGI [2]: > 100 µM | TGI [10]: > 100 µM | TGI [3]: > 100 µM | TGI [9]: 94.4 µM | TGI [4]: > 100 µM | TGI [5]: > 100 µM | TGI [6]: > 100 µM | TGI [7]: > 100 µM

CC(C)N(C(C)C)P(OCCC#N)OC1CC(n2cnc3c(=O)[nH]cnc32)OC1COC(=O)NCCCCCCNC(=O)OC(C)(C)c1ccc(-c2ccccc2)cc1 (stereo not drawn)
TGI [11]: 65.1 µM | TGI [8]: 55.2 µM | TGI [1]: 65 µM | TGI [10]: 38.2 µM | TGI [9]: 74.3 µM | TGI [4]: 40.9 µM | TGI [5]: > 100 µM | TGI [6]: 57.8 µM | TGI [7]: 31.3 µM

CCN(CC)CCNc1ccc2ncn3c4cc(=O)ccc4c(O)c1c23
TGI [11]: 15.6 µM | TGI [8]: 11.4 µM | TGI [1]: 9.61 µM | TGI [10]: 13.5 µM | TGI [9]: 3.68 µM | TGI [4]: 12.1 µM | TGI [5]: 41.9 µM | TGI [6]: 32 µM | TGI [7]: 22 µM

C#CCOC(=O)C(N)CCSC (stereo not drawn)
TGI [8]: > 100 µM | TGI [2]: > 100 µM | TGI [3]: > 100 µM | TGI [9]: > 100 µM | TGI [4]: > 100 µM | TGI [5]: > 100 µM | TGI [7]: > 100 µM

O=C(O)CC(O)(C(=O)O)C(O)C(=O)O (stereo not drawn)
TGI [11]: > 1000 µM | TGI [8]: > 1000 µM | TGI [1]: > 1000 µM | TGI [2]: > 1000 µM | TGI [10]: > 1000 µM | TGI [3]: > 1000 µM | TGI [9]: > 1000 µM | TGI [4]: > 1000 µM | TGI [5]: > 1000 µM | TGI [6]: > 1000 µM

C/C=C1\CC(C(=O)OCC)CCCCCCCCCCC1=O (stereo not drawn)
TGI [8]: > 100 µM | TGI [1]: > 100 µM | TGI [2]: > 100 µM | TGI [10]: > 100 µM | TGI [3]: > 100 µM | TGI [9]: > 100 µM | TGI [4]: > 100 µM | TGI [5]: > 100 µM | TGI [6]: > 100 µM | TGI [7]: > 100 µM

OC1c2ccccc2C(O)C2OC12 (stereo not drawn)
TGI [8]: > 100 µM | TGI [1]: > 100 µM | TGI [2]: > 100 µM | TGI [10]: > 100 µM | TGI [3]: > 100 µM | TGI [9]: > 100 µM | TGI [4]: > 100 µM | TGI [5]: > 100 µM | TGI [6]: > 100 µM | TGI [7]: > 100 µM

c1ccc(CCn2cncn2)cc1
TGI [11]: > 100 µM | TGI [8]: > 100 µM | TGI [1]: > 100 µM | TGI [10]: > 100 µM | TGI [4]: > 100 µM | TGI [5]: > 100 µM | TGI [6]: > 100 µM | TGI [7]: > 100 µM

CCN(CC)CCC(=O)c1ccc(Oc2ccc(F)cc2)cc1
TGI [11]: 37.1 µM | TGI [8]: > 100 µM | TGI [2]: 83.4 µM | TGI [10]: > 100 µM | TGI [3]: 71.9 µM | TGI [9]: 30.5 µM | TGI [5]: > 100 µM | TGI [6]: 33.6 µM

COc1ccc2c(c1)-c1[nH]c3ccccc3c1CC2
TGI [11]: 23.6 µM | TGI [8]: 26.2 µM | TGI [1]: 29.9 µM | TGI [2]: 24.3 µM | TGI [10]: 32.4 µM | TGI [3]: 29.6 µM | TGI [4]: 28.2 µM | TGI [5]: 33.6 µM | TGI [6]: 30.9 µM | TGI [7]: 29.5 µM

CC(=O)O[C@H]1CC[C@H]2[C@@H]3CCC(C(C)=O)[C@H](C(=O)O)[C@H]3CC[C@]12C (stereo partly drawn)
TGI [11]: > 100 µM | TGI [1]: > 100 µM | TGI [2]: > 100 µM | TGI [10]: > 100 µM | TGI [3]: > 100 µM | TGI [9]: > 100 µM | TGI [4]: > 100 µM | TGI [5]: > 100 µM | TGI [6]: > 100 µM | TGI [7]: > 100 µM

COc1cc2c(cc1OCCCCCOc1cc3c(cc1OC)C(=O)N1CCC[C@H]1CN3)N=C[C@@H]1CCCN1C2=O
TGI [8]: 29.1 µM | TGI [1]: > 100 µM | TGI [2]: > 100 µM | TGI [10]: > 100 µM | TGI [3]: 61.5 µM | TGI [9]: 72 µM | TGI [4]: 12.2 µM | TGI [5]: > 100 µM | TGI [6]: > 100 µM | TGI [7]: 30.9 µM

NC(N)=NCC(N)C(=O)O (stereo not drawn)
TGI [8]: > 100 µM | TGI [1]: > 100 µM | TGI [2]: > 100 µM | TGI [10]: > 100 µM | TGI [3]: > 100 µM | TGI [9]: > 100 µM | TGI [4]: > 100 µM | TGI [5]: > 100 µM | TGI [6]: > 100 µM | TGI [7]: > 100 µM

O=C1NC2(C=Cc3c(ccc4ccccc34)O2)Oc2ccccc21 (stereo not drawn)
TGI [8]: 74.1 µM | TGI [1]: > 100 µM | TGI [10]: > 100 µM | TGI [9]: 43.3 µM | TGI [4]: 29.5 µM | TGI [6]: 79.1 µM | TGI [7]: 9.41 µM

COC(=O)C1C2CC3C(OC(=O)C31)C2OC(=O)[C@](OC)(c1ccccc1)C(F)(F)F (stereo partly drawn)
TGI [11]: > 100 µM | TGI [8]: > 100 µM | TGI [1]: > 100 µM | TGI [10]: > 100 µM | TGI [9]: > 100 µM | TGI [4]: > 100 µM | TGI [5]: > 100 µM | TGI [6]: > 100 µM | TGI [7]: > 100 µM

Cc1ccc2c(=O)c(-c3n[nH]c(=S)s3)c[nH]c2n1
TGI [8]: > 100 µM | TGI [1]: > 100 µM | TGI [2]: > 100 µM | TGI [10]: > 100 µM | TGI [3]: > 100 µM | TGI [9]: > 100 µM | TGI [4]: > 100 µM | TGI [6]: > 100 µM | TGI [7]: > 100 µM

O=C1N[C@@H](COc2ccc(C=Nc3ccc(CCc4ccc(N=Cc5ccc(OC[C@@H]6COC(=O)N6)cc5)cc4)cc3)cc2)CO1
TGI [8]: > 100 µM | TGI [2]: > 100 µM | TGI [10]: > 100 µM | TGI [3]: > 100 µM | TGI [9]: > 100 µM | TGI [4]: > 100 µM | TGI [5]: > 100 µM | TGI [6]: > 100 µM | TGI [7]: > 100 µM

Cc1sc2nc3n(c(=O)c2c1C)N=C(c1ccc([N+](=O)[O-])cc1)CS3
TGI [11]: > 100 µM | TGI [8]: > 100 µM | TGI [1]: > 100 µM | TGI [2]: > 100 µM | TGI [3]: > 100 µM | TGI [9]: > 100 µM | TGI [4]: > 100 µM | TGI [5]: > 100 µM | TGI [7]: > 100 µM

CC(=O)n1ccc2c(Cl)ncnc21
TGI [11]: > 100 µM | TGI [1]: > 100 µM | TGI [9]: > 100 µM | TGI [4]: > 100 µM | TGI [5]: > 100 µM | TGI [6]: > 100 µM | TGI [7]: > 100 µM

COC[C@@H](Cc1ccc(OC)c(OC)c1)[C@@H](COC)Cc1ccc(OC)c(OC)c1
TGI [11]: > 100 µM | TGI [1]: > 100 µM | TGI [9]: > 100 µM | TGI [4]: > 100 µM | TGI [5]: > 100 µM | TGI [6]: > 100 µM | TGI [7]: > 100 µM

CCC1(O)CC(OC2CC(N(C)C)C(OC3CC(O)C(OC4CCC(=O)C(C)O4)C(C)O3)C(C)O2)c2c(O)c3c(c(O)c2C1C(=O)OC)C(=O)c1cccc(O)c1C3=O (stereo not drawn)
TGI [11]: 0.04 µM | TGI [10]: 0.21 µM | TGI [3]: 0.252 µM and 0.132 µM | TGI [4]: 0.0261 µM | TGI [7]: 0.0292 µM
